± gives the standard deviation of the averaged measurements.
What was measured:
[1] = compound: O=c1[nH]cc(F)c(=O)[nH]1 [FLUOROURACIL]; experiment: surviving fraction relative to DMSO-only wells; higher = less growth inhibition; conditions: exposure time: 5 days
Summary of the method: (§1)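 Surviving fraction is CellTiter-Glo luminescence divided by the median of wells given DMSO only. For this, log-phase tumour cell lines went into 384-well plates at 250–500 cells per well and, 24 hours later, into five days of continuous inhibitor exposure at 0.5, 1, 5, 10, 50, 100, 500 and 1000 nM. Lines were screened three times and retained only if replicate Pearson r >0.7 and median Z' >0.3.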

[2] = compound: Oc1ccc(/C=C/c2cc(O)cc(O)c2)cc1 [RESVERATROL]; experiment: as above; conditions: exposure time: 5 days
Summary of the method: as §1

| Test System | surviving fraction ([1]; 0.5 nM) | surviving fraction ([1]; 1 nM) | surviving fraction ([1]; 5 nM) | surviving fraction ([1]; 10 nM) | surviving fraction ([1]; 50 nM) | surviving fraction ([1]; 100 nM) | surviving fraction ([1]; 500 nM) | surviving fraction ([1]; 1000 nM) | surviving fraction ([2]; 0.5 nM) | surviving fraction ([2]; 1 nM) | surviving fraction ([2]; 5 nM) | surviving fraction ([2]; 10 nM) | surviving fraction ([2]; 50 nM) | surviving fraction ([2]; 100 nM) | surviving fraction ([2]; 500 nM) | surviving fraction ([2]; 1000 nM) |
| --- | --- | --- | --- | --- | --- | --- | --- | --- | --- | --- | --- | --- | --- | --- | --- | --- |
| 93VU HEADNECK | 1.01 ± 0.11 | 1 ± 0.052 | 1.07 ± 0.089 | 1.05 ± 0.11 | 0.884 ± 0.082 | 0.884 ± 0.0072 | 0.665 ± 0.062 | 0.882 ± 0.063 | 1.07 ± 0.11 | 1.07 ± 0.095 | 1.11 ± 0.065 | 1.14 ± 0.078 | 1.149 ± 0.0099 | 1.22 ± 0.16 | 1.1 ± 0.068 | 1.11 ± 0.15 |
| MDAMB436 BREAST | 0.937 ± 0.046 | 0.921 ± 0.063 | 0.964 ± 0.12 | 0.846 ± 0.11 | 0.84 ± 0.12 | 0.815 ± 0.029 | 0.722 ± 0.031 | 0.625 ± 0.013 | 0.943 ± 0.049 | 1.01 ± 0.17 | 0.998 ± 0.2 | 1.01 ± 0.11 | 1.08 ± 0.21 | 0.993 ± 0.11 | 1.06 ± 0.15 | 1.07 ± 0.056 |
| LNCAP PROSTATE | 1.07 ± 0.039 | 1.17 ± 0.076 | 1.07 ± 0.11 | 1.05 ± 0.043 | 1.17 ± 0.022 | 1.12 ± 0.021 | 0.964 ± 0.18 | 0.73 ± 0.11 | 0.912 ± 0.051 | 0.987 ± 0.098 | 0.897 ± 0.11 | 0.775 ± 0.12 | 1.04 ± 0.16 | 0.919 ± 0.11 | 0.914 ± 0.08 | 0.956 ± 0.18 |
| MHM BONE | 1.04 ± 0.07 | 1.02 ± 0.028 | 1.06 ± 0.047 | 1.04 ± 0.039 | 1.084 ± 0.0067 | – | 1.063 ± 0.0092 | 0.974 ± 0.034 | 0.997 ± 0.013 | 1.02 ± 0.015 | 1.03 ± 0.012 | 1.03 ± 0.018 | 1.06 ± 0.032 | 1.06 ± 0.049 | 0.998 ± 0.025 | 1.045 ± 0.0076 |
| CME SYNOVIAL | 1.35 ± 0.12 | 1.26 ± 0.024 | 1.27 ± 0.032 | 1.21 ± 0.036 | 1.02 ± 0.1 | 1.03 ± 0.1 | 0.931 ± 0.15 | 0.554 ± 0.017 | 1.23 ± 0.043 | 1.29 ± 0.045 | 1.4 ± 0.15 | 1.44 ± 0.15 | 1.37 ± 0.059 | 1.38 ± 0.14 | 1.33 ± 0.18 | 1.21 ± 0.039 |
| OSHN BONE | 1.01 ± 0.014 | 0.972 ± 0.029 | 1.061 ± 0.007 | 1.001 ± 0.0042 | 1.007 ± 0.0011 | 0.9777 ± 0.0071 | 0.989 ± 0.014 | 0.875 ± 0.029 | 1.02 ± 0.022 | 1.106 ± 0.0076 | 1.07 ± 0.017 | 1.099 ± 0.004 | 1.06 ± 0.026 | 1.13 ± 0.03 | 1.09 ± 0.02 | 1.11 ± 0.024 |
| MCF7 BREAST | 0.929 ± 0.055 | 0.907 ± 0.043 | 0.93 ± 0.035 | 0.893 ± 0.027 | 0.973 ± 0.11 | 0.986 ± 0.032 | 0.837 ± 0.054 | 0.707 ± 0.033 | 0.91 ± 0.027 | 1.01 ± 0.074 | 0.927 ± 0.068 | 0.947 ± 0.03 | 0.951 ± 0.063 | 0.99 ± 0.016 | 1 ± 0.077 | 1.04 ± 0.031 |
| CAL51 BREAST | 0.931 ± 0.016 | 0.918 ± 0.09 | 0.944 ± 0.048 | 0.971 ± 0.016 | 1 ± 0.057 | 0.904 ± 0.017 | 0.915 ± 0.015 | 0.763 ± 0.018 | 0.901 ± 0.03 | 1.04 ± 0.033 | 1.07 ± 0.034 | 1.03 ± 0.038 | 1.04 ± 0.056 | 1.03 ± 0.028 | 1.02 ± 0.047 | 1.1 ± 0.043 |
| SUM149.B1*.S BREAST | 1.1 ± 0.044 | 1.06 ± 0.043 | 1.12 ± 0.028 | 1.04 ± 0.04 | 1.04 ± 0.064 | 0.962 ± 0.034 | 0.909 ± 0.03 | 0.812 ± 0.021 | 1.05 ± 0.056 | 1.09 ± 0.041 | 1.08 ± 0.051 | 1.1 ± 0.061 | 1.02 ± 0.036 | 1.128 ± 0.0016 | 1.09 ± 0.043 | 1.14 ± 0.026 |
| MDAMB134 BREAST | 0.823 ± 0.042 | 0.964 ± 0.16 | 0.832 ± 0.082 | 0.877 ± 0.18 | 0.745 ± 0.094 | 0.744 ± 0.12 | 0.748 ± 0.0042 | 0.714 ± 0.016 | 0.894 ± 0.15 | 1.02 ± 0.045 | 0.864 ± 0.11 | 0.811 ± 0.016 | 1.06 ± 0.14 | 1.04 ± 0.15 | 1.057 ± 0.0028 | 1.08 ± 0.048 |
| YAMATO SYNOVIAL | 1.2 ± 0.08 | 1.15 ± 0.056 | 1.3 ± 0.021 | – | 0.921 ± 0.061 | 0.829 ± 0.046 | 0.791 ± 0.053 | 0.654 ± 0.028 | 1.21 ± 0.063 | 1.28 ± 0.1 | 1.34 ± 0.064 | 1.27 ± 0.18 | 1.32 ± 0.18 | 1.31 ± 0.099 | 1.25 ± 0.073 | 1.15 ± 0.15 |

— the supplement of paper PMC6045584
